How the values were obtained:
[1] = Pharmacokinetics in plasma and lung in mouse after oral aspiration administration; format: in vivo; conditions: male CD1 mice; for Lung Tissue AUC(0-24) / AUC(0-t): 0.2 mg/mL, two 25 μL increments; for Lung Tissue:Plasma AUC ratio: lung AUC to plasma AUC; for AUC(0-t): mouse, inhaled or intranasal, 0.01 mg/mouse, plasma, read-out: Plasma AUC(0-24)
How it was run: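 Male CD1 mice given 0.2 mg/mL compound in 20% propylene glycol/pH 4 citrate buffer, two 25 μL increments by oral aspiration into the trachea under isoflurane. Plasma and lung homogenate sampled 0.167–24 hr and measured by LC-MS/MS. Non-compartmental analysis gave AUC(0-inf); lung-to-plasma ratio from lung (μg*hr/g) over plasma (μg*hr/mL) AUC.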

JAK2 = JAK2 (Homo sapiens (Human), UniProt O60674); assay: Biochemical JAK kinase assay (LanthaScreen), JAK2; conditions: read-out: JAK2 pKi (converted)
JAK2, sequence (O60674 whole entry): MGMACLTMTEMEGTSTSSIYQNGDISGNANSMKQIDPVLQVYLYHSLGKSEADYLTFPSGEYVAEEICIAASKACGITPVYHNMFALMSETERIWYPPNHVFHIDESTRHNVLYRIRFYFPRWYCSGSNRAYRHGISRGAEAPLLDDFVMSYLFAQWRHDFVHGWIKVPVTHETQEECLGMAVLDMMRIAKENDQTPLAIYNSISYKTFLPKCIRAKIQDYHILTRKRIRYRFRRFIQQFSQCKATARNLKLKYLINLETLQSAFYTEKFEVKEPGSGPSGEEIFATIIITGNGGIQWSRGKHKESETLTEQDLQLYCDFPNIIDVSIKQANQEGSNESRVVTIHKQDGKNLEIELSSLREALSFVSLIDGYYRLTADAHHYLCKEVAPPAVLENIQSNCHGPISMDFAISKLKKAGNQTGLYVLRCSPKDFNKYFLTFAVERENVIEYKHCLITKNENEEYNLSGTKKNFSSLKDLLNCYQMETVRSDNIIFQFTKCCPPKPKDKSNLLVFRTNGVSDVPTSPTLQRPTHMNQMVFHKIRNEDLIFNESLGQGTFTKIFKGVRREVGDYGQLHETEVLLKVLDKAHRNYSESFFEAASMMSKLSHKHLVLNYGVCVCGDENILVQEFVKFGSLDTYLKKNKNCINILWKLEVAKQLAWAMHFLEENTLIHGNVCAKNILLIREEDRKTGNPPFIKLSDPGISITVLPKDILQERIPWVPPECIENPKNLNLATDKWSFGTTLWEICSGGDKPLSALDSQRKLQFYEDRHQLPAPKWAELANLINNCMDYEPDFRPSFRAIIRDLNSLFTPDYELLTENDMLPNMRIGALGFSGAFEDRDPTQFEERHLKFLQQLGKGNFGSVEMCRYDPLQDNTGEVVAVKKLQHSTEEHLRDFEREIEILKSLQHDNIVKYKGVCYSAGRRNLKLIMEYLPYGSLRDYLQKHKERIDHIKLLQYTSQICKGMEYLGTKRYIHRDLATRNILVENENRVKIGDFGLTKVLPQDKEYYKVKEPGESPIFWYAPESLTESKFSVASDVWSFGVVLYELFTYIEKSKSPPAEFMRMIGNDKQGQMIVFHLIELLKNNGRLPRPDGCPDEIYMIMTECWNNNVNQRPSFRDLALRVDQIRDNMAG
How it was run: (§1)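 LanthaScreen format: phospho-STAT1 (pTyr701) detected with 2 nM Tb antibody after 10 mM EDTA quench. Kinase step used Km-level ATP and 200 nM STAT1 peptide, 1 h at ambient after 1 h pre-incubation. Inhibition fitted to IC50, reported as pKi.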

[2] = system: IL-13 induced STAT6 phosphorylation in BEAS-2B human lung epithelial cells; assay: Cellular JAKI potency assay (BEAS-2B); format: cell-based; conditions: Homo sapiens, BEAS-2B, BEAS-2B cells, read-out: BEAS2B pIC50 (converted)
How it was run: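 BEAS-2B cells were preincubated with compound (0.1% DMSO) in HBSS/HEPES/BSA for 1 h at 37 °C, then stimulated with IL-13 (80 ng/mL before addition) for 30 min. After lysis, pSTAT6 (Tyr641) was quantified by AlphaLISA SureFire; IC50 from a 4-parameter fit of percent inhibition, reported as pIC50.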

JAK1 = JAK1 (Homo sapiens (Human), UniProt P23458); assay: Biochemical JAK kinase assay (LanthaScreen), JAK1; conditions: read-out: JAK1 pKi (converted)
JAK1, sequence (P23458 whole entry): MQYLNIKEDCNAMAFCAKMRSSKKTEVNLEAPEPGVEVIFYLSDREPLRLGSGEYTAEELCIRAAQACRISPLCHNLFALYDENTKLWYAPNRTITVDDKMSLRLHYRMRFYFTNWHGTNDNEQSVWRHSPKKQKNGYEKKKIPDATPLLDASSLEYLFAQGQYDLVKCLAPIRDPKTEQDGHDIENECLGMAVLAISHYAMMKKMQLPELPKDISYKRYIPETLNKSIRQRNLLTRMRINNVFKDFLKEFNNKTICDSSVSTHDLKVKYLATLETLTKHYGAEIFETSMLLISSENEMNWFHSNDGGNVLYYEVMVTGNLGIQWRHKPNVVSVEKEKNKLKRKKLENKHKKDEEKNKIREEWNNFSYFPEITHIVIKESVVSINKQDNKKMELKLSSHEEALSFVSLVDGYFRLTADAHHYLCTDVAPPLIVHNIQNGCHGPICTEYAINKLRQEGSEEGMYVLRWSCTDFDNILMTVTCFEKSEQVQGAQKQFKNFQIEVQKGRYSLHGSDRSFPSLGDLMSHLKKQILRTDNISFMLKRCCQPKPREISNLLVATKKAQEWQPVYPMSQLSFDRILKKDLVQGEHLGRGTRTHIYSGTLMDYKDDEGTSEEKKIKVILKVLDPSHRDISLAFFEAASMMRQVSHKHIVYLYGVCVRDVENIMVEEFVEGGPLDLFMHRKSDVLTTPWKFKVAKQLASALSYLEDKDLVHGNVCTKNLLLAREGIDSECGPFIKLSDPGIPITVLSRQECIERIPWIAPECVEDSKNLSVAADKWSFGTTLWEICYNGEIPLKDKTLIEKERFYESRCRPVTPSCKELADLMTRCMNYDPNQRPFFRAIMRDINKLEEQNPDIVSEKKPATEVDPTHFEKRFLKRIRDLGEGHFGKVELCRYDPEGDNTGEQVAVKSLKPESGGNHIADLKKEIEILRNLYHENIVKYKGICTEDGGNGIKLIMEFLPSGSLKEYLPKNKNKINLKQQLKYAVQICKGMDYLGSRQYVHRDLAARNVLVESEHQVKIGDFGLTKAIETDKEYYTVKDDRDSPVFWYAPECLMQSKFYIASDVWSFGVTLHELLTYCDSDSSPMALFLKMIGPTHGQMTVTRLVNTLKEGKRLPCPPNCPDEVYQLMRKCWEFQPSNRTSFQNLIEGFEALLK
How it was run: as §1

TYK2 = TYK2 (Homo sapiens (Human), UniProt P29597); assay: Biochemical JAK kinase assay (LanthaScreen), Tyk2; conditions: read-out: Tyk2 pKi (converted)
TYK2, sequence (P29597 whole entry): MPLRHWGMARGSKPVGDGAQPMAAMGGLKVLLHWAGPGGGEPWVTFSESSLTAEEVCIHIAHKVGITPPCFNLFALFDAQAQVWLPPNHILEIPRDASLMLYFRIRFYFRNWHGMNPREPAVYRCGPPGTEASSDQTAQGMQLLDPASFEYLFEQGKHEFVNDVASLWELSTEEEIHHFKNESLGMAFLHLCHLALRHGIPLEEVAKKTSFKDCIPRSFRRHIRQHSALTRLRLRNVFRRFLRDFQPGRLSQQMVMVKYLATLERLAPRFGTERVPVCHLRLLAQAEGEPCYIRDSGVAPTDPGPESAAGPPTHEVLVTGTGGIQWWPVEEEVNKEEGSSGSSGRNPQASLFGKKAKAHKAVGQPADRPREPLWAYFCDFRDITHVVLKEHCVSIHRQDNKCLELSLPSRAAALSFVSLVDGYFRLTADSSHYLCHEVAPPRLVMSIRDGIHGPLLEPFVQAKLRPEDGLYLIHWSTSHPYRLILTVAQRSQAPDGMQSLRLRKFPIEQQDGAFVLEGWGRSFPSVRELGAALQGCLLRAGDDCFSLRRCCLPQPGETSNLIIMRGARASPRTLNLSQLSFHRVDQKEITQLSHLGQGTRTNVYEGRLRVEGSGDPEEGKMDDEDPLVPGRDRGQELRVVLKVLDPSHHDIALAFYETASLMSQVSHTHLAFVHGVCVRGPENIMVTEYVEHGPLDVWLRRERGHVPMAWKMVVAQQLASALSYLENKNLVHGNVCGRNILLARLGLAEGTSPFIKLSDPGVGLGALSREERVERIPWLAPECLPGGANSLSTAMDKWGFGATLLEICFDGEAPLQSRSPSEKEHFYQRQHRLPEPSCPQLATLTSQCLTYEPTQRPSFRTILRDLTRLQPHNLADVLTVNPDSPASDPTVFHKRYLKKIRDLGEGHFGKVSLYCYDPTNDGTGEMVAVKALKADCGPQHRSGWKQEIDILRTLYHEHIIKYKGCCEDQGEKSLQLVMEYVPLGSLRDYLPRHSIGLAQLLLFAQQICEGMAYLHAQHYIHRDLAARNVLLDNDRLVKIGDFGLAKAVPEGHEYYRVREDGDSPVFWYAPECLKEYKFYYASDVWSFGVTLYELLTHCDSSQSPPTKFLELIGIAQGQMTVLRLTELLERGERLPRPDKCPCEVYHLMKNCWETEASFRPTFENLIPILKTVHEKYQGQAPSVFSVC
How it was run: as §1

Compound | Lung Tissue AUC(0-24) [1] | Lung Tissue:Plasma AUC ratio [1] | AUC(0-t) [1] | Ki (JAK2) | IC50 [2] | Ki (JAK1) | Ki (TYK2)
CCc1cc(O)ccc1-c1ccc2c(-c3nc(C4=CCNC4)c[nH]3)n[nH]c2c1F [Compound 1, 4-(3-(4-(2,5-dihydro-1H-pyrrol-3-yl)-1H-imidazol-2-yl)-7-fluoro-1H-indazol-6-yl)-3-ethylphenol] | B (B denotes a value between 50 and 100) | C (C denotes a ratio between 100 and 200) | 500 to 1000 ng·h/mL | 0.1 to 1 nM | 3.16 to 10 nM | 0.1 to 1 nM | 1 to 10 nM
CCc1cc(O)ccc1-c1ccc2c(-c3nc(C4=CCNCC4)c[nH]3)n[nH]c2c1 [Compound 3, 3-ethyl-4-(3-(4-(1,2,3,6-tetrahydropyridin-4-yl)-1H-imidazol-2-yl)-1H-indazol-6-yl)phenol] | A (For the Lung Tissue AUC(0-24), A denotes a value between 100 and 200) | C (C denotes a ratio between 100 and 200) | 500 to 1000 ng·h/mL | 0.1 to 1 nM | 3.16 to 10 nM | 0.1 to 1 nM | 0.1 to 1 nM
CCc1cc(O)ccc1-c1ccc2c(-c3nc(C4=CCNCC4)c[nH]3)n[nH]c2c1F [Compound 2, 3-ethyl-4-(7-fluoro-3-(4-(1,2,3,6-tetrahydropyridin-4-yl)-1H-imidazol-2-yl)-1H-indazol-6-yl)phenol] | B (B denotes a value between 50 and 100) | C (C denotes a ratio between 100 and 200) | 500 to 1000 ng·h/mL | 0.1 to 1 nM | 3.16 to 10 nM | 0.1 to 1 nM | 1 to 10 nM

From patent US20240092758A1, “IMIDAZOLO INDAZOLE COMPOUNDS AS JAK INHIBITORS” (Theravance Biopharma R&D IP, LLC, priority 2021, published 2024)
